Results from US12331121B2, “Efflux pump-cancer antigen multi-specific antibodies and compositions, reagents, kits and methods related thereto” (William Robert Arathoon Living Trust Dated August 29, 2016, priority 2019, dated 2025).

Experiments:
[1] = system: naïve 293T cells; test: Enhanced cell killing (chemosensitization) of naïve 293T cells with chemotherapeutic titration; type: cell-based, human
Protocol: HEK 293T, MCF-7, N6ADR and SKNF7 cell lines expressing Pgp were obtained from the American Type Culture Collection. N6/ADR cells is also referred to as NALM6/ADR cells. All cell lines and lines derived from them were maintained in RPMI 1640 or DMEM supplemented with up to 10% fetal bovine serum (Sigma), nonessential amino acids, and 2 mmol/L L-glutamine at 37° C. and 5% CO2 in a humidified incubator (unless otherwise indicated). Cells were used as supplied or were modified to overexpress (Ox) Pgp or were subject to having Pgp expression knocked down (KD) with lentiviral-mediated short hairpin RNA or knock out (KO) of the functional CD47 gene by CRISPR/Cas-mediated knock out technology essentially as described (Cong, L. et al. (2013) Science 339, 819-823). For vincristine and paclitaxel IC50 determination, cells were plated in normal growth medium and allowed to adhere overnight. Paclitaxel or vincristine (Sigma) were added in a dilution series and any modulators were added within ranges of 0 to 500 μM/L. Cell viability was measured 72 h later using the Celltiter-Glo Luminescent Cell Viability Assay (Promega).
FIG. 8 provides comparisons of binding and enhanced cell killing by different bispecific antibodies (with various humanized or chimerized heavy or light chain combinations). […] Columns 5-8 (“Binding (293)”, “Binding (293 KO CD47)”, Binding (293 KO CD47, OX ABCB1)”, and “Binding (293 OX ABCB1)”) provide FACS mean fluorescence intensities of antibodies binding to the indicated cell lines compared with non-binding control antibodies: “−”=˜zero, “±”=0 to ˜0.5 Log shift, “+”=˜1 Log shift, “++”=1→2 Log shift (see FIG. 3A for examples of non-binding controls and binding antibodies).

[2] = system: 293T naïve cells; test: FACS binding to cells co-expressing Pgp and CD47; parameters: species or system human; details: FIG. 4
Protocol: In FIG. 4A-4B, the binding of the bispecific antibody is shown by FACS analysis against a variety of cell lines. The first scan (left panel in FIG. 4A and FIG. 4B) illustrates binding of the antibody to cells co-expressing both targets, (Pgp and CD47). […] FIG. 4A-4B further show binding with titrated antibody concentrations of 600 nM, 200 nM, 66 nM, 7.4 nM and 2 nM, with the signal measured from isotype and no antibody control also provided. The respective antibody concentrations are indicated in the left panel of FIG. 4A and FIG. 4B, and the measured signal from these different concentrations are generally overlapping in the middle and right panels of FIGS. 4A and 4B. FIG. 4A and FIG. 4B represent results obtained from two different batches of antibody.

[3] = system: multidrug resistant N6ADR cells; test: N6ADR tumors in mice (Example 5); type: in vivo
Protocol: Tumors formed by injecting multidrug resistant N6ADR cells in mice were treated by administering the anti-MDR1 antibody 15D3, with or without paclitaxel or administering KbisP1.1 with or without paclitaxel.

[4] = system: cynomolgus RBCs; test: Binding to cynomolgus erythrocytes; details: FIG. 22B; in contrast to anti-CD47 5F9
[5] = system: CTG-2616 patient-derived breast tumors; test: CTG-2616 patient-derived breast cancer model; type: in vivo, mice; details: antibody 6 mg/kg and paclitaxel 5 mg/kg
Source text: Cells: CTG-2616 is a ER^+/Her2^+ primary breast cancer, derived from a patient presenting with recurrent ductal adenocarcinoma of the breast.
Mice: 5-6-weeks-old athymic Nude-Foxn1nu female nude mice (Envigo) were used in this study.
Inoculation—Snap-Frozen pieces of patient-derived tumors were thawed, cut into 5×5×5 mm and were subcutaneously injected into anesthetized 5-6-week-old female nude mice under sterile conditions. For tumor implantation procedure, a 1-1.5 cm incision was made on the implantation site and forceps were used to implant the tumor fragment. When sufficient stock animals reached 1000-1500 mm^3, tumors were harvested for re-implantation into pre-study animals. Pre-study animals were implanted unilaterally on the left flank with tumor fragments harvested from stock animals. Each animal was implanted from a specific passage lot and documented. Pre-study tumor volumes were recorded for each experiment beginning seven to ten days after implantation. When tumors reached an average tumor volume of 150-300 mm^3, animals were matched by tumor volume into treatment or control groups to be used for dosing and dosing initiated on Day 0. All surgical procedures were conducted under sterile conditions. […]

With “KBisP1.1: bispecific anti-MDR1/anti-CD47 antibody: 15D3 heavy chain, 5F9 (KT14) heavy chain, common MRK16 light chain, human IgG1” as the substance, how does the “sensitivity of naïve 293T cells to paclitaxel” value ([1]; FIG. 5, 6, compared to chemo only) read?
The value was “enhanced”.

And the “in vitro killing of naïve 293T with vincristine” value ([1]; antibody 25 nM, compared to vincristine alone, FIG. 7)?
Its value is “enhanced in vitro killing”.

What about the “Killing: enhanced 293 naïve cell-killing (sensitization)” value ([1]; paclitaxel titration, FIG. 8) of the same substance?
The value was “++ (≥2 Log shift)”.

And the “FACS binding when both targets are co-expressed” value [2]?
Its value is “specific binding”.

What about the “chemo-sensitization of N6ADR tumor to paclitaxel” value ([3]; FIG. 21) of the same substance?
The value was “dose-dependent”.

What about the “efficacy against N6ADR cell tumors” value ([3]; with or without paclitaxel, FIG. 20) of the same substance?
The value was “more efficacious than the 15D3 antibody”.

And the “binding to cynomolgus erythrocytes” value [4]?
Its value is “no significant binding”.

What about the “tumor growth with paclitaxel” value [5] of the same substance?
Its value is “tumor growth inhibition”.
